Like-named read-outs stand apart in the source and are kept apart here.
How the values were obtained:
Factor Xa = Factor Xa (Homo sapiens, UniProt P00742); details: as disclosed in WO 00/76971; cited from earlier work
[1] = moisture sorption isotherm (vacuum microbalance); format: physicochemical; details: ambient temperature, once the dihydrate had been formed
Method: A moisture sorption isotherm of the D-tartrate crystals was also determined using a vacuum microbalance, with a 40° C. drying step prior to initial data collection. With the initial drying step, an initial 6% weight loss was observed, consistent with the removal of the waters of crystallization. As the relative humidity was increased, the sample resorbed water, with rehydration being completed when the relative humidity reached about 20%.

equilibrium solubility = format: physicochemical; details: thermodynamic from solid, 25° C., measured as the free base
[2] = solid form stability at high relative humidity and in aqueous suspension; format: physicochemical
Description: Salts of 1-(indole-6-carbonyl-D-phenylglycinyl)-4-(1-methylpiperidin-4-yl)piperazine that form crystalline solids are disclosed in Examples 48a (hydrochloride salt) and 48b (difumarate salt) of WO 01/96323. […] Thus, the form disclosed in WO 02/100847 as Form 1 is obtained as thin needles. The thin needle morphology has disadvantages for formulation, however, because of, inter alia, clustering and low bulk density. […] The form disclosed in WO 02/100847 as Form 2 has the disadvantage, inter alia, that the particle size is very small, resulting in extremely slow filtration.

Chain of Factor Xa (P00742 235-488 limits assumed): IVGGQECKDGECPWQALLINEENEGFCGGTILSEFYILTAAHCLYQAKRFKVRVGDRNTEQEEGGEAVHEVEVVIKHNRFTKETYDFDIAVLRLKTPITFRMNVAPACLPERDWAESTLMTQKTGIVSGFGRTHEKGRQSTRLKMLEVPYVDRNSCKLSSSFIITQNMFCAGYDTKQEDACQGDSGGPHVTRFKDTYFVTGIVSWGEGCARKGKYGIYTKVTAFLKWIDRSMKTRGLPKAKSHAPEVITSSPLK
Chain of Factor Xa (P00742 41-179 partner limits assumed): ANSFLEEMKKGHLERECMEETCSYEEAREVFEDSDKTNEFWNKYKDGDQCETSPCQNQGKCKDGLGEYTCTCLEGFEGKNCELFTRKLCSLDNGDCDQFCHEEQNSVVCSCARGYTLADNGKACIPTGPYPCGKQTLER

SMILES: CN1CCC(N2CCN(C(=O)[C@H](NC(=O)c3ccc4cc[nH]c4c3)c3ccccc3)CC2)CC1 [1-(indole-6-carbonyl-D-phenylglycinyl)-4-(1-methylpiperidin-4-yl)-piperazine]
- inhibition of Factor Xa (Factor Xa): potent and selective inhibitor of Factor Xa

SMILES: CN1CCC(N2CCN(C(=O)[C@H](NC(=O)c3ccc4cc[nH]c4c3)c3ccccc3)CC2)CC1.O.O.O=C(O)C(O)C(O)C(=O)O [D-tartrate crystals, 1-(Indole-6-carbonyl-D-phenylglycinyl)-4-(1-methylpiperidin-4-yl)piperazine D-Tartrate Dihydrate]
- stability of the dihydrate to relative humidity [1]: remained stable between 5 and 95% relative humidity
- solubility thermodynamic (equilibrium solubility; simulated gastric fluid, 0.01 M HCl, read-out: equilibrium solubility in 0.01 M HCl): ≥ 125 mg/mL
- solubility thermodynamic (equilibrium solubility; water, read-out: equilibrium solubility in water): ≥ 126 mg/mL

SMILES: CN1CCC(N2CCN(C(=O)[C@H](NC(=O)c3ccc4cc[nH]c4c3)c3ccccc3)CC2)CC1.O=C(O)/C=C/C(=O)O.O=C(O)/C=C/C(=O)O [Form 1]
- form conversion under extremely high relative humidity ([2]; above 80% relative humidity): convert to a different (higher) hydrate
- form conversion in aqueous suspensions ([2]; aqueous suspensions): convert into the form disclosed in WO 02/100847 as Form 2

Reference: patent US20070249623A1, “1-(Indole-6-Carbonyl-D-Phenylglycinyl)-4-(1-Methylpiperidin-4-Yl)Piperazine D-Tartrate” (Eli Lilly and Company Patent Division, priority 2004, published 2007)
